Test results taken from patent US8178578B2, “Chemical compounds” (The University of Manchester, priority 2006, dated 2012).

How the values were obtained:
[1] = tested on: K562 human chronic myelogenous leukaemia cell line; experiment: Test (a): growth inhibitory activity, MTT assay; type: cell-based; conditions: 120 h, K562 cells, 5 days incubation, read-out: IC50 - Assay (a), concentration to inhibit 50% cell proliferation
Description: The compounds of the present invention were tested in test (a) for growth inhibitory activity (IC50) against the K562 human chronic myelogenous leukaemia cell line using a MTT assay generally as described in Tada, H., Shiho, O., Kuroshima, K., Koyama, M., Tsukamoto, K., J. Immunol. Methods 1986, 93, 157 and Edmondson, J. M., Armstrong, L. S., Martinez, A. O., J. Tissue Culture Methods 1988, 11, 15. Cells were cultured in Roswell Park Memorial Institute (RPMI) medium, free of antibiotics and containing L-glutamine ([…]), supplemented with 10% foetal calf serum. A single suspension of the K562 cell line was tested from an exponentially growing culture. The cells were counted using a haemocytometer, and diluted to 5×10^3/ml.
A compound of the present invention was dissolved in dimethylsulfoxide (DMSO) at a concentration of 50 μM and 4 μl of the DMSO solution was added to the cell suspension (4 ml). 1 ml of this solution was added to a further 1 ml of cell solution in a neighbouring tube, giving a compound half that of the initial dilution. The dilutions were continued in the same manner affording seven samples at different concentrations. One cell solution was left compound free as a control. Treated cells (200 μl) were pipetted in triplicate into a 96-well plate and incubated at 37° C. in a 5% CO2 in air atmosphere for 5 days. After this time, the plate was removed from the incubator and a solution of (3-(4,5-dimethylthiazol-2-yl)-2,5-diphenyltetrazolium bromide (MTT) (50 μl, 3 mg/ml in phosphate buffered saline (PBS)) was added to each well. After a further 3 hour incubation period under the same conditions, the medium was carefully removed from each well by suction and the resulting formazan precipitate was dissolved in DMSO (200 μl). The optical density of each well was then read (540 nm) using a Titretek Multiscan MCC/340 platereader. After processing and analysis through the application of an ‘in-house’ software package, the results obtained enabled the calculation of the drug dose required to inhibit cellular growth by 50% (GI50 or IC50 value).

[2] = tested on: tubulin; experiment: Test (b): inhibition of tubulin assembly; type: biochemical; conditions: absorbance at 350 nm over 20 minutes, 37° C.; read-out: IC50 - Assay (b), concentration for 50% inhibition of tubulin assembly
Description: The compounds of the present invention were also tested in assay (b) for their ability to inhibit tubulin assembly generally as described in McGown and Fox, “Structural and biochemical comparison of the anti-mitotic agents colchicine, combretastatin A-4 and amphethinile” Anti-Cancer Drug Design, 3, 249, 1989.
Samples were prepared in quartz cuvettes at 0° C. and contained 2-morpholinoethanesulfonic acid (MES) buffer (740 μl, 0.1 M MES, 1 mM ethylene glycol tetraacetic acid (EGTA), 0.5 mM MgCl2, pH 6.6), a compound of the present invention (10 μl, 1 mM in DMSO), tubulin (150 μl, 1/4 dilution of neat tubulin in MES buffer) and GTP (100 μl, 10 mM). The overall concentration of the compound in solution was therefore 10 μM. The cell was mixed well, dried and immediately placed in a Varian Cary 1 UV/Visible spectrophotometer, preheated to 37° C., along with a control sample containing MES buffer (740 μl), guanosine triphosphate (GTP) (100 μl, 10 mM), tubulin (150 μl, concentration as before) and DMSO (10 μl). The absorbance at 350 nm was recorded over a period of 20 minutes. The results were compared with the untreated control experiment to assess the relative degree of change in optical density. If assembly was less than 50% of that of the control, the experiment was repeated using decreasing concentrations (from 1 mM) of the compound in order to determine the activity.

[3] = tested on: DLD-1 tumours (colon carcinomas); experiment: Test (c): in vivo functional vasculature study with Hoechst 33342; set-up: species or system mice; conditions: single intraperitoneal dose at believed maximum tolerated dose
Description: The compounds of the present invention were also tested in in vivo functional vasculature studies using the fluorescent DNA-binding compound Hoechst 33342 (H33342)
Twenty-eight mice were used for test (c). The tumours used were colon carcinomas (DLD-1). Once the tumours reached a suitable size, mice were randomised and assigned into 10 groups with one control group and 3 groups for each compound to be tested (referred to as a “drug group”). Mice in a drug group were treated intraperitoneally with a single dose of a compound of the present invention at a dose believed to be the maximum tolerated dose for each compound being tested (the maximum tolerated dose being measured by dosing mice with increasing amounts of compound (normally doubling the previous dose) until it is either fatal or the animal suffers substantial weight loss or has become distressed). The dose for the compound of Example 1 was 60 mg/kg, for the compound of Example 2 was 120 mg/kg and for the compound of Example 3 was 270 mg/kg. The control group was untreated. H33342 was then injected intravenously at 40 mg/kg to the treated mice 4, 8 and 24 hours after administration of a compound of the present invention and after 24 hours to the untreated control mice. After one minute, each mouse was killed by cervical dislocation and the tumours were removed. Following this procedure the H33342 is confined to the nuclei of cells adjacent to the blood vessels. The tumours were wrapped in aluminium foil and immediately snap-frozen in liquid nitrogen and then stored at −80° C. until required for sectioning. For assessment of tumour vasculature, 10 μm-thick sections were cut using a cryostat (Leica, CM 1100, Scientific Laboratory Supplies, UK) with intervals between sections of 200 μm. The sections were placed on glass slides and allowed to air dry before viewing under a light microscope using UV illumination. Functional vascular volume was quantified using a point scoring system as described previously (Cowen S. E., Bibby M. C., Double J. A., Characterisation of the vasculature within a murine adenocarcinoma growing in different sites to evaluate the potential of vascular therapies, Acta Oncologica, 1995, 34, 357-60). Using a graticule with 22×16 grids, points crossing areas of fluorescence were counted as positive points. The total number of positive points was used to calculate the percentage of functional vasculature. Five sections per tumour and 5 fields per section were examined for tumours.
The results of test (c) are shown in FIG. 1, which is a graph showing relative percentage of control functional vasculature in the DLD-1 tumours after treatment with the compounds of Examples 1, 2 and 3 at doses of 60, 120 and 270 mg/kg respectively. Each point plotted in the graph of FIG. 1 represents the mean percentage of control functional vasculature for each time-point.

[4] = Maximum tolerated dose by dose escalation in mice; conditions: mouse, in vivo, ip, single intraperitoneal dose, read-out: dose believed to be the maximum tolerated dose

| Structure (SMILES) | melting point | IC50 [1] | IC50 [2] | functional vasculature in DLD-1 tumours compared to control tumours ([3]; 4 hours post-treatment) | functional vasculature in DLD-1 tumours compared to control tumours ([3]; 8 hours post-treatment) | functional vasculature in DLD-1 tumours compared to control tumours ([3]; 24 hours post-treatment) | MTD [4] |
| --- | --- | --- | --- | --- | --- | --- | --- |
| COc1ccc2c(c1OP(=O)([O][Na+])[O][Na+])COCc1cc(OC)c(OC)c(OC)c1-2 [Example 4, 3,9,10,11-Tetramethoxy-5,7-dihydrodibenzo[c,e]oxepin-4-yl disodium phosphate] |  | 0.23 nM | 700 nM |  |  |  |  |
| COc1ccc2c(c1O)COCc1cc(OC)c(OC)c(OC)c1-2 [Example 3, 3,9,10,11-Tetramethoxy-5,7-dihydrodibenzo[c,e]oxepin-4-ol] |  | 33.9 nM | 800 nM | dramatically decreased | restored back to above control level | significantly decreased | 270 mg/kg |
| COc1cc2c(c(OC)c1OC)-c1ccc([N+](=O)[O-])cc1COC2 [Example 5, 1,2,3-Trimethoxy-9-nitro-5,7-dihydrodibenzo[c,e]oxepine] | 161 °C |  |  |  |  |  |  |
| COc1ccc2c(c1N)COCc1cc(OC)c(OC)c(OC)c1-2 [Example 9, 3,9,10,11-Tetramethoxy-5,7-dihydrodibenzo[c,e]oxepin-4-amine] |  | 2 nM | 900 nM |  |  |  |  |
| COc1ccc2c(c1)COCc1cc(OC)c(OC)c(OC)c1-2 [Example 1, 1,2,3,9-Tetramethoxy-5,7-dihydrodibenzo[c,e]oxepine] |  | 110 nM | 5700 nM |  | significant decrease | significant decrease | 60 mg/kg |
| COc1cc2c(c(OC)c1OC)-c1cc3c(cc1COC2)OCO3 [Example 2, 5,7-Dihydro-1,2,3-trimethoxybenzo[d][1,3]dioxolo[4,5-h][2]benzoxepin] |  |  |  | no difference | no difference | significant functional vasculature decrease | 120 mg/kg |

Second part, led by results:

| melting point | Structure (SMILES) | IC50 [1] | IC50 [2] | functional vasculature in DLD-1 tumours compared to control tumours ([3]; 4 hours post-treatment) | functional vasculature in DLD-1 tumours compared to control tumours ([3]; 8 hours post-treatment) | functional vasculature in DLD-1 tumours compared to control tumours ([3]; 24 hours post-treatment) | MTD [4] |
| --- | --- | --- | --- | --- | --- | --- | --- |
| 145 °C | COc1cc2c(c(OC)c1OC)-c1ccc(N)cc1COC2 [Example 6, 9,10,11-Trimethoxy-5,7-dihydrodibenzo[c,e]oxepin-3-amine] |  |  |  |  |  |  |
| 164 °C | COc1ccc2c(c1OS(=O)(=O)C(F)(F)F)COCc1cc(OC)c(OC)c(OC)c1-2 [Example 7, 3,9,10,11-Tetramethoxy-5,7-dihydrodibenzo[c,e]oxepin-4-yl trifluoromethanesulfonate] |  |  |  |  |  |  |
